The values below come from ChEMBL document CHEMBL4017490, “Design, Synthesis, and Pharmacological Evaluation of Novel Multisubstituted Pyridin-3-amine Derivatives as Multitargeted Protein Kinase Inhibitors for the Treatment of Non-Small Cell Lung Cancer” (J Med Chem, 2017).

The structures appear in SMILES notation.

In assay [1] the target is Fibroblast growth factor receptor 1 (Homo sapiens, UniProt P11362). Description: Inhibition of recombinant human FGFR1 using poly (Glu,Tyr) 4:1 as substrate after 60 mins by ELISA.
The target of assay [2] is Fibroblast growth factor receptor 2 (Homo sapiens, UniProt P21802).
Description: Inhibition of recombinant human FGFR2 using poly (Glu,Tyr) 4:1 as substrate after 60 mins by ELISA
The target in assay [3] is Fibroblast growth factor receptor 3 (Homo sapiens, UniProt P22607). Put plainly: Inhibition of recombinant human FGFR3 using poly (Glu,Tyr) 4:1 as substrate after 60 mins by ELISA.
For assay [4], the target named is Proto-oncogene tyrosine-protein kinase receptor Ret (Homo sapiens, UniProt P07949). Put plainly: Inhibition of recombinant Ret (unknown origin) using poly (Glu,Tyr) 4:1 as substrate after 60 mins by ELISA.
Assay [5] concerns the target Proto-oncogene tyrosine-protein kinase Src (Homo sapiens, UniProt P12931). Description: Inhibition of recombinant c-Src (unknown origin) using poly (Glu,Tyr) 4:1 as substrate after 60 mins by ELISA. (In general: In an ELISA, binding on a coated surface is turned into a signal by an enzyme label.)
In assay [6] the target is Vascular endothelial growth factor receptor 1 (Homo sapiens, UniProt P17948). Description: Inhibition of recombinant VEGFR-1 (unknown origin) using poly (Glu,Tyr) 4:1 as substrate after 60 mins by ELISA.
Assay [7] addresses Platelet-derived growth factor receptor alpha (Homo sapiens, UniProt P16234). Description: Inhibition of recombinant PDGFR-alpha (unknown origin) using poly (Glu,Tyr) 4:1 as substrate after 60 mins by ELISA.
In assay [8] the target is Platelet-derived growth factor receptor beta (Homo sapiens, UniProt P09619). Description: Inhibition of recombinant PDGFR-beta (unknown origin) using poly (Glu,Tyr) 4:1 as substrate after 60 mins by ELISA.
The target of assay [9] is T1, Tyrosine-protein kinase Mer (Homo sapiens, UniProt Q12866).
T1 sequence (Q12866 whole entry): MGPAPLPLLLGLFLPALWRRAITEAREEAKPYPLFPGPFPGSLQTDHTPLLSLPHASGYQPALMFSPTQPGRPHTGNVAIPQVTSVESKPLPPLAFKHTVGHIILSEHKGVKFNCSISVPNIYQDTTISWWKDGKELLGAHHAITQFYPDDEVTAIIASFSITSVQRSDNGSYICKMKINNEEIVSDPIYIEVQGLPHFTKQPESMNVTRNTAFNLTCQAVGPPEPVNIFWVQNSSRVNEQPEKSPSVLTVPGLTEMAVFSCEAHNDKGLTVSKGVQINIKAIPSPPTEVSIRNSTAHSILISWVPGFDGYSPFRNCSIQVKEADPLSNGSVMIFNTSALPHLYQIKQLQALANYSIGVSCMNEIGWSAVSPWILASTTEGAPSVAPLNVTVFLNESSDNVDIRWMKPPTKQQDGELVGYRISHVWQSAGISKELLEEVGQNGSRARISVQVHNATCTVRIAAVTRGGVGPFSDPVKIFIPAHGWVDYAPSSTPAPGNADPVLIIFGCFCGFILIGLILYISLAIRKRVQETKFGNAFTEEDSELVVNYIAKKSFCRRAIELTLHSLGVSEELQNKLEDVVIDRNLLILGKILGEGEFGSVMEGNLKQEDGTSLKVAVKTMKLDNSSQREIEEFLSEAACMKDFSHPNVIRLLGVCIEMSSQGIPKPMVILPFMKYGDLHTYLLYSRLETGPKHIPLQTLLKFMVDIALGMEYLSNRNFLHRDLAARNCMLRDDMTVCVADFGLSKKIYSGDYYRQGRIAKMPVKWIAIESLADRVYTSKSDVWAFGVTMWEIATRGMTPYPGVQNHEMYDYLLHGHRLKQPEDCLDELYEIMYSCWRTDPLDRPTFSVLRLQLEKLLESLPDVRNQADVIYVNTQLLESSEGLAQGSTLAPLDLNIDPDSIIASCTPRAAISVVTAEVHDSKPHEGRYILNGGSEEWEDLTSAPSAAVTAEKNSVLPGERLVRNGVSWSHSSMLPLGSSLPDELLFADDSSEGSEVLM
Put plainly: Inhibition of recombinant Mer (unknown origin) using poly (Glu,Tyr) 4:1 as substrate after 60 mins by ELISA.

In assay [10] the target is Receptor tyrosine-protein kinase erbB-2 (Homo sapiens, UniProt P04626). Description: Inhibition of recombinant ErbB2 (unknown origin) using poly (Glu,Tyr) 4:1 as substrate after 60 mins by ELISA.
Assay [11] deals with Proto-oncogene tyrosine-protein kinase ROS (Homo sapiens, UniProt P08922). Description: Inhibition of recombinant ROS1 (unknown origin) using poly (Glu,Tyr) 4:1 as substrate after 60 mins by ELISA.
Assay [12] deals with Ephrin type-A receptor 2 (Homo sapiens, UniProt P29317). Put plainly: Inhibition of recombinant EPH-A2 (unknown origin) using poly (Glu,Tyr) 4:1 as substrate after 60 mins by ELISA.
In assay [13] the target is Mast/stem cell growth factor receptor Kit (Homo sapiens, UniProt P10721). Put plainly: Inhibition of recombinant c-Kit (unknown origin) using poly (Glu,Tyr) 4:1 as substrate after 60 mins by ELISA.
Assay [14] deals with Mitogen-activated protein kinase 1 (Homo sapiens, UniProt P28482). Put plainly: Inhibition of Erk2 (unknown origin) by FRET assay.
Assay [15] concerns the target Cyclin-dependent kinase 4 (Homo sapiens, UniProt P11802). Put plainly: Inhibition of CDK4 (unknown origin) by FRET assay.
Assay [16] deals with Cyclin-dependent kinase 6 (Homo sapiens, UniProt Q00534). Description: Inhibition of CDK6 (unknown origin) by FRET assay.
Assay [17] concerns the target Tyrosine-protein kinase ABL1 (Homo sapiens, UniProt P00519).
Description: Inhibition of recombinant ABL (unknown origin) using poly (Glu,Tyr) 4:1 as substrate after 60 mins by ELISA

Chain of Fibroblast growth factor receptor 2 (P21802 whole entry): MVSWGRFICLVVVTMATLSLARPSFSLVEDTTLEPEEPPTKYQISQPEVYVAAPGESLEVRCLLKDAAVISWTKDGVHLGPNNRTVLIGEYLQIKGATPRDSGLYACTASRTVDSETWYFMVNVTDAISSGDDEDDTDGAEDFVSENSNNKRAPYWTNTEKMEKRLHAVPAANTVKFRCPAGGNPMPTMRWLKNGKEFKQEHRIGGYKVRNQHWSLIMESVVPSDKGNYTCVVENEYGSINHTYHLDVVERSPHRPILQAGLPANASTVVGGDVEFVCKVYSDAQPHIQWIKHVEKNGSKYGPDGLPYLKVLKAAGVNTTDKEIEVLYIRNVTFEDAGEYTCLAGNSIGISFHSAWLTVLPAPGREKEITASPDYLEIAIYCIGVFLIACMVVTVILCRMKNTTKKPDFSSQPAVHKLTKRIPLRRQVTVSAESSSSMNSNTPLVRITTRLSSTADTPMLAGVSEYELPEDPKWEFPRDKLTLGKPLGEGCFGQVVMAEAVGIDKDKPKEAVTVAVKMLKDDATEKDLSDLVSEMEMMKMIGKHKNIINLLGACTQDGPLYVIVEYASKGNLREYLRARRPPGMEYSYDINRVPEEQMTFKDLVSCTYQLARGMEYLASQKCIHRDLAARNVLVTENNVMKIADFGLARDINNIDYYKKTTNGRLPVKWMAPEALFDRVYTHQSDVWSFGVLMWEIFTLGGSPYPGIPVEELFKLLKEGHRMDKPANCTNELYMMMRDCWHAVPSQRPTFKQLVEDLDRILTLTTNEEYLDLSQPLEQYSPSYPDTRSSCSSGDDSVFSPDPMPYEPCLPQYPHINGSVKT
Chain of Tyrosine-protein kinase ABL1 (P00519 whole entry): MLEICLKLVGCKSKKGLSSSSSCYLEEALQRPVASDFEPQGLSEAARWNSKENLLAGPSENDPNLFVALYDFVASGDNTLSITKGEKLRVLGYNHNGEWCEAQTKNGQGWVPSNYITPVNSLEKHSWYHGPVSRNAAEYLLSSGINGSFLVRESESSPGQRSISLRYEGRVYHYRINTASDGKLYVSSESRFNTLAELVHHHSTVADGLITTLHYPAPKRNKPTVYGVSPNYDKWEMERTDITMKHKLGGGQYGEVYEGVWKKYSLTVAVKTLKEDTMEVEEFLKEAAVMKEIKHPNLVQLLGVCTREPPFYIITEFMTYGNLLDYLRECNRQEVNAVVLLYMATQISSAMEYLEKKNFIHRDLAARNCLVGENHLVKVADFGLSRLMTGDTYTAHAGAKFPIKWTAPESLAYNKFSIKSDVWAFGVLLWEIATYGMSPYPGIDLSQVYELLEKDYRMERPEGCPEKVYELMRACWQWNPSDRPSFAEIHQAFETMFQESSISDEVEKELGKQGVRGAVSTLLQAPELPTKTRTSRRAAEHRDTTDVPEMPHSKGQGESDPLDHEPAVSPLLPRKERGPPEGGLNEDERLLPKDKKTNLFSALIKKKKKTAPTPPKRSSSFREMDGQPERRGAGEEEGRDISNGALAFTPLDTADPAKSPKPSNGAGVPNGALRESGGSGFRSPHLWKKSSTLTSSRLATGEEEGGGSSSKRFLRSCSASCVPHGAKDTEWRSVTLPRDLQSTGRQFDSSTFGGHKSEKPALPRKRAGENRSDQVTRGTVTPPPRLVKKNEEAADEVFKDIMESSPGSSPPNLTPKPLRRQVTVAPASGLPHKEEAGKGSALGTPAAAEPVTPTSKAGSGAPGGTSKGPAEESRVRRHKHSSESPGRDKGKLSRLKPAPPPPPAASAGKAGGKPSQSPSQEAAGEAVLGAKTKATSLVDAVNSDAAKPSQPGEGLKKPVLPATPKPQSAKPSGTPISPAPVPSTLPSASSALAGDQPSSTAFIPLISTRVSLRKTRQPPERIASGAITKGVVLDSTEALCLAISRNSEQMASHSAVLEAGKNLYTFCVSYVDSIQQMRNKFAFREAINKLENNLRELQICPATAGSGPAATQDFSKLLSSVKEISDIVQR
Chain of Proto-oncogene tyrosine-protein kinase Src (P12931 2-536 limits assumed): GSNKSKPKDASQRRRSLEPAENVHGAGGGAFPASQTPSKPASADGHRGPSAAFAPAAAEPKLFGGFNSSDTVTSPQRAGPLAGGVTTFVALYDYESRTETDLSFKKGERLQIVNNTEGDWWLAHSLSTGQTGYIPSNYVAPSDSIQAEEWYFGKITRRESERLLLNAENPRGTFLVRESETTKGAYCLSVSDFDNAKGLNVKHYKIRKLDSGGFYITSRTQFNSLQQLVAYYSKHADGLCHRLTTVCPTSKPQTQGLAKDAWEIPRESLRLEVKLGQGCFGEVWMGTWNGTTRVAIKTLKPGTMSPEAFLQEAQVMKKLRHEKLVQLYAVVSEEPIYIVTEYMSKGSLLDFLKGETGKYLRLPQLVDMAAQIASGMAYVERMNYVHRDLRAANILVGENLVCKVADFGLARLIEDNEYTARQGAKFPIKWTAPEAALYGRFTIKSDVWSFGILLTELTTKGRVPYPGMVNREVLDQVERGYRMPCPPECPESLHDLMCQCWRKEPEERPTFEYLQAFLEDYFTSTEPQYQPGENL
Chain of Ephrin type-A receptor 2 (P29317 whole entry): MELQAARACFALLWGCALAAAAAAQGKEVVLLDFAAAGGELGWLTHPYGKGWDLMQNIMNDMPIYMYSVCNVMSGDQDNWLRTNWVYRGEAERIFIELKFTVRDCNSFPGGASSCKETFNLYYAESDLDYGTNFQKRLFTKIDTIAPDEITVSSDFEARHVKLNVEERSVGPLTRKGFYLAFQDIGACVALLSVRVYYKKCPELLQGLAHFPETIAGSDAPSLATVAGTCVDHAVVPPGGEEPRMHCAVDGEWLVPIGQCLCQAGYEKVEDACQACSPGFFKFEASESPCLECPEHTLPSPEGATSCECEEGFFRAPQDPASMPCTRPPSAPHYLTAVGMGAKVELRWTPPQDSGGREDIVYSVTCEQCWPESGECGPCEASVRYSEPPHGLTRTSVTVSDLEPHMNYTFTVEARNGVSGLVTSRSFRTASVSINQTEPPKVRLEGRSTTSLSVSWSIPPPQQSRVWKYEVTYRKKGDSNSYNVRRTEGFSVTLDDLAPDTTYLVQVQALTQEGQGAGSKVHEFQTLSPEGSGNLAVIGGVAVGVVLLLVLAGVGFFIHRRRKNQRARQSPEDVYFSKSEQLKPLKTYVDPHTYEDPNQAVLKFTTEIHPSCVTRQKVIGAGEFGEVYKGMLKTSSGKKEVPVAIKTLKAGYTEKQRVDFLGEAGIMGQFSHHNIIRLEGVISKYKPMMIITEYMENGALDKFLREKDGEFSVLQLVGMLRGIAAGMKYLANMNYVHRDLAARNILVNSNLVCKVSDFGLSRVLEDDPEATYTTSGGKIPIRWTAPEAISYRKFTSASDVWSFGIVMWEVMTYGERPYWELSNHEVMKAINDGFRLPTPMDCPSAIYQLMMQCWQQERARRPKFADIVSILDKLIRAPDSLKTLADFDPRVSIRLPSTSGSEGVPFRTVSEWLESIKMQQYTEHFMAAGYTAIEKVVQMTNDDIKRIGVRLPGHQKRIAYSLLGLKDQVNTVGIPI
Chain of Platelet-derived growth factor receptor beta (P09619 whole entry): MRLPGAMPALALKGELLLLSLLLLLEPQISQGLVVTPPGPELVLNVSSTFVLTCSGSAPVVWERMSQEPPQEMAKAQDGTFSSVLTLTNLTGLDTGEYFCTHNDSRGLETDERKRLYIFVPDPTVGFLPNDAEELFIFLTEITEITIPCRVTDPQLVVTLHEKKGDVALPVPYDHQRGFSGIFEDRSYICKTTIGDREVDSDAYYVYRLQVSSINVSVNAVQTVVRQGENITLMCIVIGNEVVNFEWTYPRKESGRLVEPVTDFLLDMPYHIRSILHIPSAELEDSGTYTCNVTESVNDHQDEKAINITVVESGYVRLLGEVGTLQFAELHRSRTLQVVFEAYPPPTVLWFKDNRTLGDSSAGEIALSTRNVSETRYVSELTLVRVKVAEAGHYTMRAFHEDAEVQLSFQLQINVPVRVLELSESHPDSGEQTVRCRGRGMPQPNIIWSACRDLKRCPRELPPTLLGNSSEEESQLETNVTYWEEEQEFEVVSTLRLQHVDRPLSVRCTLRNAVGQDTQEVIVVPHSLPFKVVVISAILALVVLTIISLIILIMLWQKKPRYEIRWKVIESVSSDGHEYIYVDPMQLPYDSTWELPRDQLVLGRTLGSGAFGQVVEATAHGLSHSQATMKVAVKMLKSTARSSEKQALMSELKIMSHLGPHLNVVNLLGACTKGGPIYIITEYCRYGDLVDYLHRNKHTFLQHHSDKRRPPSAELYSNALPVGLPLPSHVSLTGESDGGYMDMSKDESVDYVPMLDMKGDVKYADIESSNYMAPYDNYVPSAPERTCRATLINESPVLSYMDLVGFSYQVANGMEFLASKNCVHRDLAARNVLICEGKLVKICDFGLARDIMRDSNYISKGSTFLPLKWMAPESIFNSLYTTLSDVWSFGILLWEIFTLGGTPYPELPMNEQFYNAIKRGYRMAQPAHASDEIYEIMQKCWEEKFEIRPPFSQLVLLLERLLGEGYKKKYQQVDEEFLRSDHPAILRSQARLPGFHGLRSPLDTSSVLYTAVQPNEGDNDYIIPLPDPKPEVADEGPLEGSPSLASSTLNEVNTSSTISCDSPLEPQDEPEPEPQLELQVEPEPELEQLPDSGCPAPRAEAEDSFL
Chain of Mitogen-activated protein kinase 1 (P28482 whole entry): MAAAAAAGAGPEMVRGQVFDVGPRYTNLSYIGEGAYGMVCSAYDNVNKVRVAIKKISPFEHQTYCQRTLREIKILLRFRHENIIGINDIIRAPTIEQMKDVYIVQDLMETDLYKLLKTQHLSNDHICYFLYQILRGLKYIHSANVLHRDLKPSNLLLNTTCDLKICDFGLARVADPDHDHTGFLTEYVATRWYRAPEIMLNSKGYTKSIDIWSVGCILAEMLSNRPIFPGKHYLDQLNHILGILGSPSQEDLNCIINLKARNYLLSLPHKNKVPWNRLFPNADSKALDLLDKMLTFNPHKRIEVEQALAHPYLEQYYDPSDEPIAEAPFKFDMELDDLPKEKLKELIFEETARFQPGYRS

As for `Cc1n[nH]c2ccc(-c3cc(N[C@@H](CO)c4ccccc4)cnc3-c3cc(Cl)ccc3O)cc12`, the concentration for half-maximal inhibition (IC50) (usually the concentration that gives 50% inhibition) was 55.8 nM in [1]; 8.6 nM in assay [2]; 73.1 nM in assay [3]; 0.7 nM in assay [4]; 3.9 nM in assay [5]; greater than 10 nM in [6]. The IC50 was greater than 100 nM in assay [7]; greater than 100 nM in [8]; 30.9 nM in assay [9]; 1 to 10 nM in [10]; 273 nM in assay [11]; greater than 10 nM in assay [12]. Also, the IC50 was greater than 10 nM in assay [13]; 960 nM in assay [14]; greater than 1000 nM in [15]; greater than 1000 nM in assay [16]; 6.6 nM in assay [17].

As to `Cc1n[nH]c2ccc(-c3cc(N[C@@H](CO)c4ccccc4)cnc3-c3ccc(F)cc3O)cc12`, the IC50 in [1] was 25.2 nM; in assay [2], 4.7 nM; in assay [3], 15.9 nM; in assay [4], 0.4 nM; in assay [5], 6 nM; in [6] it was greater than 10 nM. In addition, the IC50 is greater than 100 nM in assay [7]; 1 to 10 nM in assay [8]; 7.1 nM in assay [9]; 1 to 10 nM in assay [10]; greater than 1000 nM in assay [11]; greater than 100 nM in assay [12]. The IC50 in [13] is greater than 10 nM; in assay [14], greater than 1000 nM; in [15], greater than 1000 nM; in assay [16], greater than 1000 nM; in [17] it was 6.1 nM.

As for `Cc1n[nH]c2ccc(-c3cc(N[C@@H](CO)c4ccccc4)cnc3-c3cc(F)ccc3O)cc12`, the IC50 is 18 nM in assay [1]; 1.6 nM in [2]; 27.5 nM in assay [3]; 0.2 nM in [4]; 5.7 nM in [5]; 1 to 10 nM in [6]. The IC50 in assay [7] was greater than 100 nM; in [8], greater than 10 nM; in [9], 36.9 nM; in [10], greater than 10 nM; in assay [11], greater than 1000 nM; in [12] it was greater than 10 nM. Besides, the half-inhibitory concentration (IC50) in assay [13] is greater than 10 nM; in assay [14] it was 575 nM; in assay [15], greater than 1000 nM; in assay [16], greater than 1000 nM; in [17] it was 2.9 nM.

Regarding `OC[C@H](Nc1cnc(-c2cc(Cl)ccc2O)c(-c2ccc3cnccc3c2)c1)c1ccccc1`, the IC50 in [1] is 16.1 nM; in assay [2] it was 2 nM; in [3], 23 nM; in assay [4], 0.04 nM; in [5], 6.4 nM; in [6] it was greater than 10 nM. In addition, the IC50 in [7] was greater than 100 nM; in assay [8] it was 1 to 10 nM; in [9], 4.4 nM; in assay [10], 1 to 10 nM; in assay [11] it was 168 nM; in [12] it was greater than 100 nM. In addition, the IC50 was greater than 10 nM in [13]; 196 nM in assay [14]; greater than 1000 nM in [15]; greater than 1000 nM in [16]; 4.3 nM in assay [17].
